Reference: US12036199B1 (Dynamic Biologics Inc., priority 2023, dated 2024)

How the values were obtained:
[1] = cited from earlier work
[2] = In vitro stability of 10 μM DB104 incubated in fresh human plasma (HRMS / LC-MS detection of DB104, intermediates and L-DOPA); type: in vitro ADME; conditions: for degradation product of DB104 observed in human plasma: human plasma incubation of DB104; for half-life at 10 μM: human, fresh human plasma
Experimental: (§1) 10 μM DB104 (DB104 is identified above and is one of the Derivatives of the present invention) was incubated in fresh plasma and phosphate buffer saline (PBS) in multiple aliquots, and each aliquot was divided into two equal halves at the following time points: 0, 1, 2, 4, 6, 24, 48, 72, 96, 120, 144, 168, 192, 216, 240, and 264 h. The first half was quenched with ACN:MeOH containing 1% formic acid and analyzed on the high-resolution mass spectroscopy (HRMS) to detect DB104 and all other possible intermediates. Labetalol was used as internal standard (IS). The other half was quenched with perchloric acid and analyzed on an AB Sciex 7500 mass spectrometer to detect L-DOPA. Dopamine-d4 will be used as IS.
(§2) Possible intermediates structures from the steps above are as follows:
(§3) DB104 took about 4 h and 1-4 h to get fully solubilized in human plasma and PBS, respectively. This was evident by initial increase in peak area followed by degradation. All peak area ratios were normalized to the max peak area ratio value observed. […] DB104M2 was not observed in either human plasma or PBS.

[3] = In vitro stability of 10 μM DB104 incubated in phosphate buffer saline (PBS); type: physicochemical; conditions: for half-life at 10 μM: phosphate buffer saline (PBS)
Experimental: as §1, §2, §3

[4] = Phase III clinical trials; cited from earlier work
[5] = cited from earlier work; remark: listed apart in the source

## C[C@@](Cc1ccc(O)c(O)c1)(NN)C(=O)O [Carbidopa]
[1]; carbidopa administered with levodopa
  reduction of the amount of levodopa required to produce a given response: 75%

## CCCCCCCCCCCC(=O)Oc1ccc(CC(N)C(=O)O)cc1OC(=O)CCCCCCCCCCC (stereo not shown) [DB104M1]
[2]
  degradation product of DB104 observed in human plasma: observed in PBS only
[3]; PBS incubation of DB104
  degradation product of DB104 observed in PBS: observed in PBS only

## CCCCCCCCCCCCOC(=O)C(N)Cc1ccc(O)c(O)c1 (stereo not shown) [DB104M3]
[2]
  degradation product of DB104 observed in human plasma: observed
[3]; PBS incubation of DB104
  degradation product of DB104 observed in PBS: observed

## CCN(CC)C(=O)/C(C#N)=C/c1cc(O)c(O)c([N+](=O)[O-])c1 [entacapone]
[1]; 200 mg entacapone co-administered with levodopa/carbidopa
  increase of levodopa plasma exposure: 35-40%

## CCCCCCCCCCCCOC(=O)C(N)Cc1ccc(O)c(OC(=O)CCCCCCCCCCC)c1 (stereo not shown) [DB104M4]
[2]
  degradation product of DB104 observed in human plasma: observed
[3]; PBS incubation of DB104
  degradation product of DB104 observed in PBS: observed
  rank of degradant in PBS: major degradant

## CCOC(=O)[C@@H](N)Cc1ccc(O)c(O)c1 [Etilevodopa]
[4]
  efficacy compared with Levodopa: less efficacious than Levodopa

## N[C@@H](Cc1ccc(O)c(O)c1)C(=O)O [Levodopa, (S)-2-amino-3-(3,4-dihydroxyphenyl)propanoic acid, reference compound]
[2]
  degradation product of DB104 observed in human plasma: observed
[3]; PBS incubation of DB104
  degradation product of DB104 observed in PBS: observed
[5]
  Plasma half-life of levodopa alone: ~0.833 h

## CCCCCCCCCCCCOC(=O)[C@@H](N)Cc1ccc(OC(=O)CCCCCCCCCCC)c(OC(=O)CCCCCCCCCCC)c1 [DB104, (S)-4-(2-amino-3-(dodecyloxy)-3-oxopropyl)-1,2-phenylene didodecanoate]
[2]; human plasma, initial increase in peak area
  time to get fully solubilized in human plasma: about 4 h
[2]; 10 μM DB104, fresh human plasma, 0-264 h, read-out: In vitro half-life in human plasma (converted)
  half-life at 10 μM: 13.1 ± 1.4 h
[2]; human plasma, summary estimate, read-out: in vitro half-life estimated, human plasma (converted)
  half-life at 10 μM: ~12 h
[3]; L-DOPA formed from DB104 in PBS
  time over which L-DOPA is formed at detectable amounts, PBS: up to 72 h
[3]; PBS, initial increase in peak area
  time to get fully solubilized in PBS: 1 to 4 h
[3]; 10 μM DB104, PBS, 0-264 h, read-out: In vitro half-life in PBS (converted)
  half-life at 10 μM: 12.4 ± 2.6 h
[3]; PBS, summary estimate, read-out: in vitro half-life estimated, PBS (converted)
  half-life at 10 μM: ~12 h

## CCCCCCCCCCCC(=O)Oc1cc(CC(N)C(=O)O)ccc1O (stereo not shown) [DB104M2]
[2]
  degradation product of DB104 observed in human plasma: not observed
[3]; PBS incubation of DB104
  degradation product of DB104 observed in PBS: not observed
